target: T1, human recombinant mGluR5 (Homo sapiens, UniProt P41594); assay: Positive modulation of mGluR5, calcium based FLIPR assay in HEK 293 cells; conditions: EC50 of the modulation; HEK 293 cell line expressing human recombinant mGluR5; glutamate at approximately 5% basal stimulation; peak height of Ca release fluorescence signal
T1 construct: expressed in transfected cells; host or cells: HEK 293 cell line
Procedure: The positive modulation of mGluR5 is measured in a HEK 293 cell line expressing human recombinant mGluR5 and is detected with calcium based FLIPR assay. The cells are cultured with DMEM supplemented with 10% FCS, 2 μg/mL tetracycline, 100 μg/mL hygromycin and 500 μg/mL gneticin. The cell culture media is exchanged for tetracycline-free cell culture media 3-7 days before the assay. One day before the assay the cell culture medium is exchanged to DMEM without glutamine and phenol red and supplemented with 10% FCS, 100 μg/mL hygromycin and 500 μg/mL geneticin. On the assay day, the medium of the subconfluent cultures is removed and the cells are detached by addition of 2.5 ml EDTA(0.02%) per 175 cm2 culture flask for 1 minute. The cells are resuspend in Ringer solution (140 mM NaCl, 5 mM KCl, 2.5 mM CaCl2, 1.5 mM MgCl2, 5 mM Glucose, 10 mM Hepes; adjusted to pH 7.4 with NaOH), pooled and Ringer solution added to adjust the volume to 50 mL. The cell suspension is centrifuged for […] at 1500 U/min (425 g). The supernatant is removed and the cells washed a second time with 50 ml fresh Ringer solution and centrifuged again as before. The supernatant is again removed and the pellet resuspended in Ringer solution to 1,000,000 cells/ml (1×10^6 cells/mL). The cells are plated onto BD BioCoat Poly-D-Lysine 384 well plates (20.000 cells/well; 20 μl/well). The lid covered plates are then incubated until use at 37° C./10% CO2. For dye loading, 20 μl of Calcium-4 assay kit solution (prepared according to the manufacturer's description in Ringer solution) are added to the cells and the plates are incubated for 80 min 37° C. and then 10 min at room temperature.
Controls, Compound Dilution and Assay Execution:
Each assay plate contained wells with “high” and “low” controls:
Low controls 1% DMSO/ringer solution+basal glutamate activation (defined as 100% CTL).
High controls 10 μM CDPPB+basal glutamate activation (defined as 200% CTL).
Test compounds are dissolved and diluted in DMSO to 100-fold the desired concentrations. In a second step, the compounds are diluted in Ringer solution such that the compounds are 4-fold more concentrated than the desired final assay concentration. The final DMSO concentration was 1%.
20 μl of each compound solution are then transferred to the assay plate and the Ca2+ kinetic is measured to determine any intrinsic compound activity. After 5 min incubation in the FLIPR device, the second stimulation with 20 μl of glutamate in Ringer solution (glutamate concentration adjusted to approximately 5% basal stimulation of the maximal possible glutamate effect) is added and the kinetic Ca2+ response of the wells was measured for the modulation effect.
The peak height of the Ca release related fluorescence signal (9-66) is used for the EC50. The EC50 of the modulation is calculated over a nonlinear regression with GraphPad Prism (Table 1).

T1 sequence (P41594 21-1212): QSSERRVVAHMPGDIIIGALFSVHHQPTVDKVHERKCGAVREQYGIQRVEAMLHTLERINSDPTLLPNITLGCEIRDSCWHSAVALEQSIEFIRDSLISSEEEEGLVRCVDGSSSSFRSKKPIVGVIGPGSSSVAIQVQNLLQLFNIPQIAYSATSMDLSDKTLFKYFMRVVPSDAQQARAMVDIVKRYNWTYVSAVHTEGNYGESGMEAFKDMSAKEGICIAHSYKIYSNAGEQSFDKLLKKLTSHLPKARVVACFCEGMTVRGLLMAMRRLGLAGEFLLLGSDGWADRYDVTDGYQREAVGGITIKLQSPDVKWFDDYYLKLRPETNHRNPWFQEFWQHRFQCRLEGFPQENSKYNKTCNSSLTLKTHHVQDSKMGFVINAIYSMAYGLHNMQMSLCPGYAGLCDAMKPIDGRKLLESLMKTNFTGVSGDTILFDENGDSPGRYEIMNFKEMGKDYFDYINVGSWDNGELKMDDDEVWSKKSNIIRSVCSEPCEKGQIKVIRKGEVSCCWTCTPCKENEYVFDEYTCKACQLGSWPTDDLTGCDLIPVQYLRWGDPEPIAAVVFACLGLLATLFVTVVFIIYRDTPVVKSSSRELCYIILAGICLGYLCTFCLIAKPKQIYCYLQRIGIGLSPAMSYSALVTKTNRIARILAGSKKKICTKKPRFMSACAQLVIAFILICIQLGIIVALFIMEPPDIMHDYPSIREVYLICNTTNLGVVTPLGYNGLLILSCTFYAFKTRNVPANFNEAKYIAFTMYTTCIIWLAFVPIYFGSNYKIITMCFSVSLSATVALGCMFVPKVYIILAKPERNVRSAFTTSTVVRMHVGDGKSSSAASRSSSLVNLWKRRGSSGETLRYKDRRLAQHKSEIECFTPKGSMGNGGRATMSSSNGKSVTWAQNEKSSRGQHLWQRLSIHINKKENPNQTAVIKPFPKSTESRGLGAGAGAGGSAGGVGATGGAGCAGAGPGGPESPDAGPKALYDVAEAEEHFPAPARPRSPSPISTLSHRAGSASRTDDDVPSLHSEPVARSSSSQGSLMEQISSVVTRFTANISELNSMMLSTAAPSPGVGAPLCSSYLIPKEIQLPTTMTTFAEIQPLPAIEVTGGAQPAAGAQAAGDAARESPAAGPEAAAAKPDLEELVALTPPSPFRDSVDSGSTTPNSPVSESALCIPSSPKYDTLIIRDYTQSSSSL

Structure (SMILES)	EC50
Cc1ccc(-n2cc(-c3ccccc3)nc2CC(=O)N2CCN(c3ncccn3)CC2)cc1 [Example 7.01.04.]	211 nM
O=C(Cc1nc(-c2ccccc2)cn1-c1ccccc1)N1CCN(c2ncccn2)CC1 [Example 7.01.01., 2-(1,4-diphenyl-1H-imidazol-2-yl)-1-(4-pyrimidin-2-yl-piperazin-1-yl)-ethanone]	155 nM
COc1ccc(-c2cn(-c3ccc(F)cc3)c(CC(=O)N3CCN(c4ccccn4)CC3)n2)cc1 [Example 7.04.13.]	37 nM
Cc1cc(-c2cn(-c3ccc(F)cc3)c(CC(=O)N3CCN(c4cccnn4)CC3)n2)ccc1Cl [Example 7.04.19.]	13 nM
COc1ccc(-c2cn(-c3ccc(F)cc3)c(CC(=O)N3CCN(c4ncncn4)CC3)n2)cc1 [Example 7.04.15.]	91 nM
O=C(Cc1nc(-c2ccc(F)cc2)cn1-c1ccc(F)cc1)N1CCN(c2ncccn2)CC1 [Example 7.01.02.]	43 nM
COc1ccnc(N2CCN(C(=O)Cc3nc(-c4ccc(F)cc4)cn3-c3ccc(F)cc3)CC2)c1 [Example 7.03.01., 2-(1,4-Bis-(4-fluoro-phenyl)-1H-imidazol-2-yl)-1-(4-(4-methoxy-pyridin-2-yl)-piperazin-1-yl)-ethanone]	57 nM
O=C(Cc1nc(-c2ccc(F)cc2)cn1-c1ccc(F)cc1)N1CCN(c2ccccn2)CC1 [Example 7.02.01., 2-(1,4-Bis-(4-fluoro-phenyl)-1H-imidazol-2-yl)-1-(4-pyridin-2-yl-piperazin-1-yl)-ethanonene]	54 nM
Cc1ccc(-c2cn(-c3ccc(F)cc3)c(CC(=O)N3CCN(c4ccccn4)CC3)n2)cc1 [Example 7.04.06.]	36 nM
COc1ccc(-c2cn(-c3ccc(F)cc3)c(CC(=O)N3CCN(c4cc(OC)ncn4)CC3)n2)cc1 [Example 7.04.14.]	33 nM
COc1cc(N2CCN(C(=O)Cc3nc(-c4ccc(C)cc4)cn3-c3ccc(F)cc3)CC2)ncn1 [Example 7.04.07.]	114 nM
COc1ccc(-c2cn(-c3ccc(OC)cc3)c(CC(=O)N3CCN(c4ncccn4)CC3)n2)cc1 [Example 7.01.03.]	88 nM
Cc1cc(-c2cn(-c3ccc(F)cc3)c(CC(=O)N3CCN(c4ccccn4)CC3)n2)ccc1Cl [Example 7.04.18.]	30 nM

The remaining lines, values ahead:

EC50	Structure (SMILES)
69 nM	COc1ccnc(N2CCN(C(=O)Cc3nc(-c4ccc(Cl)c(C)c4)cn3-c3ccc(F)cc3)CC2)c1 [Example 7.04.20.]
76 nM	COc1ccc(-c2cn(-c3ccccc3)c(CC(=O)N3CCN(c4ncc(OC)cn4)CC3)n2)cc1 [Example 7.04.35.]
35 nM	Cc1cc(-c2cn(-c3ccc(F)cc3)c(CC(=O)N3CCN(c4ncncn4)CC3)n2)ccc1Cl [Example 7.04.22.]
174 nM	CCn1cc(-c2ccc(F)c(C)c2)nc1CC(=O)N1CCN(c2ncccn2)CC1 [Example 7.05.01, 2-(1-Ethyl-4-(4-fluoro-3-methyl-phenyl)-1H-imidazol-2-yl)-1-(4-pyrimidin-2-yl-piperazin-1-yl)-ethanone]
143 nM	COc1cccc(-c2cn(-c3ccc(F)cc3)c(CC(=O)N3CCN(c4ncncn4)CC3)n2)c1 [Example 7.04.40.]
114 nM	COc1cc(N2CCN(C(=O)Cc3nc(-c4ccc(Cl)c(C)c4)cn3-c3ccc(F)cc3)CC2)ncn1 [Example 7.04.21.]
21 nM	COc1cnc(N2CCN(C(=O)Cc3nc(-c4ccc(F)c(C)c4)cn3-c3ccccc3)CC2)nc1 [Example 7.04.46.]
21 nM	Cc1cc(-c2cn(-c3ccc(F)cc3)c(CC(=O)N3CCN(c4ncccn4)CC3)n2)ccc1F [Example 7.04.25.]
106 nM	COc1cccc(-c2cn(-c3ccc(F)cc3)c(CC(=O)N3CCN(c4cc(OC)ccn4)CC3)n2)c1 [Example 7.04.39.]
42 nM	Cc1cc(-c2cn(-c3ccc(F)cc3)c(CC(=O)N3CCN(c4ccccn4)CC3)n2)ccc1F [Example 7.04.23.]
24 nM	Cc1cc(-c2cn(-c3ccccc3)c(CC(=O)N3CCN(c4ccccn4)CC3)n2)ccc1F [Example 7.04.42.]

Source: patent publication US8937176B2, “Compounds” (Boehringer Ingelheim International GmbH, priority 2011, dated 2015)
